Experimental data reported in the NIST ThermoML archive (doi:10.1016/j.jct.2019.03.025).

Test: xn = mol fraction of the nth substance listed
Details: Liquid, Vibrating tube method

Cc1cccc(C)c1 [1,3-dimethylbenzene] + CCCCCCCCCC
mass density [kg/m3]
Details | 293.15 K | 303.15 K | 313.15 K | 323.15 K | 333.15 K | 343.15 K | 353.15 K | 363.15 K
100 kPa, x2 = 0 | 864.2 | 855 | 846.7 | 837.7 | 829 | 820 | 811.3 | 802.2
100 kPa, x2 = 0.2005 | 825.1 | 816 | 808.1 | 799.4 | 791.1 | 782.3 | 773.9 | 765.1
100 kPa, x2 = 0.3999 | 793.6 | 784.6 | 777 | 768.6 | 760.5 | 752 | 743.8 | 735.2
100 kPa, x2 = 0.603 | 768.3 | 759.3 | 752 | 743.9 | 735.9 | 727.6 | 719.6 | 711.3
100 kPa, x2 = 0.7998 | 748.3 | 739.4 | 732.3 | 724.4 | 716.6 | 708.4 | 700.5 | 692.3
1000 kPa, x2 = 0 | 864.4 | 855.4 | 846.9 | 838.6 | 829.8 | 821.1 | 812.2 | 803.3
1000 kPa, x2 = 0.2005 | 825.4 | 816.7 | 808.4 | 800.3 | 791.9 | 783.5 | 774.8 | 766.2
1000 kPa, x2 = 0.3999 | 794.1 | 785.6 | 777.4 | 769.5 | 761.3 | 753.1 | 744.7 | 736.4
1000 kPa, x2 = 0.603 | 768.8 | 760.5 | 752.5 | 744.7 | 736.7 | 728.7 | 720.5 | 712.5
1000 kPa, x2 = 0.7998 | 748.9 | 740.8 | 732.8 | 725.2 | 717.4 | 709.4 | 701.4 | 693.5
3000 kPa, x2 = 0 | 865.8 | 857.5 | 848.6 | 840.2 | 831.7 | 823 | 814.3 | 805.5
3000 kPa, x2 = 0.2005 | 826.8 | 818.7 | 810.1 | 802 | 793.8 | 785.4 | 777.1 | 768.6
3000 kPa, x2 = 0.3999 | 795.4 | 787.4 | 779.1 | 771.3 | 763.3 | 755.1 | 747 | 738.8
3000 kPa, x2 = 0.603 | 770.2 | 762.3 | 754.1 | 746.5 | 738.7 | 730.7 | 722.8 | 714.9
3000 kPa, x2 = 0.7998 | 750.2 | 742.4 | 734.4 | 727 | 719.4 | 711.5 | 703.7 | 695.9
5000 kPa, x2 = 0 | 866.9 | 858.8 | 850.1 | 841.9 | 833.4 | 825 | 816.2 | 807.6
5000 kPa, x2 = 0.2005 | 828 | 820.1 | 811.7 | 803.8 | 795.6 | 787.5 | 779.1 | 770.8
5000 kPa, x2 = 0.3999 | 796.6 | 789 | 780.8 | 773.1 | 765.1 | 757.2 | 749 | 741
5000 kPa, x2 = 0.603 | 771.4 | 763.9 | 755.8 | 748.3 | 740.5 | 732.8 | 724.8 | 717.1
5000 kPa, x2 = 0.7998 | 751.5 | 744 | 736.1 | 728.8 | 721.2 | 713.6 | 705.8 | 698.2
10000 kPa, x2 = 0 | 870.5 | 862.3 | 854 | 845.9 | 837.6 | 829.4 | 821 | 812.4
10000 kPa, x2 = 0.2005 | 831.7 | 823.8 | 815.7 | 808 | 799.9 | 792 | 784 | 775.7
10000 kPa, x2 = 0.3999 | 800.4 | 792.5 | 784.7 | 777.3 | 769.5 | 761.8 | 753.9 | 745.9
10000 kPa, x2 = 0.603 | 775.2 | 767.5 | 759.8 | 752.6 | 744.9 | 737.5 | 729.8 | 722
10000 kPa, x2 = 0.7998 | 755.2 | 747.7 | 740.2 | 733.1 | 725.7 | 718.3 | 710.8 | 703
15000 kPa, x2 = 0 | 873.8 | 865.8 | 857.6 | 849.8 | 841.6 | 833.6 | 825.7 | 817.6
15000 kPa, x2 = 0.2005 | 835.1 | 827.3 | 819.4 | 811.9 | 804.1 | 796.4 | 788.7 | 781
15000 kPa, x2 = 0.3999 | 803.7 | 796.2 | 788.5 | 781.2 | 773.7 | 766.1 | 758.7 | 751.2
15000 kPa, x2 = 0.603 | 778.6 | 771.2 | 763.6 | 756.6 | 749.2 | 741.8 | 734.6 | 727.4
15000 kPa, x2 = 0.7998 | 758.6 | 751.4 | 743.9 | 737.1 | 729.9 | 722.6 | 715.6 | 708.5
20000 kPa, x2 = 0 | 877 | 869 | 861.1 | 853.6 | 845.6 | 837.9 | 829.8 | 821.8
20000 kPa, x2 = 0.2005 | 838.3 | 830.6 | 822.9 | 815.8 | 808.1 | 800.7 | 793 | 785.3
20000 kPa, x2 = 0.3999 | 807 | 799.5 | 792.1 | 785.1 | 777.7 | 770.5 | 763 | 755.6
20000 kPa, x2 = 0.603 | 781.8 | 774.4 | 767.2 | 760.4 | 753.2 | 746.2 | 739 | 731.7
20000 kPa, x2 = 0.7998 | 761.8 | 754.7 | 747.6 | 741 | 733.9 | 727 | 720 | 712.8
25000 kPa, x2 = 0 | 880.2 | 872.2 | 864.5 | 857 | 849.3 | 841.7 | 834 | 826
25000 kPa, x2 = 0.2005 | 841.5 | 833.8 | 826.4 | 819.2 | 811.9 | 804.6 | 797.2 | 789.5
25000 kPa, x2 = 0.3999 | 810.2 | 802.7 | 795.6 | 788.6 | 781.4 | 774.3 | 767.2 | 759.8
25000 kPa, x2 = 0.603 | 785 | 777.8 | 770.7 | 763.8 | 756.9 | 750 | 743.1 | 735.9
25000 kPa, x2 = 0.7998 | 765.1 | 758 | 751.1 | 744.4 | 737.7 | 730.9 | 724.1 | 717
30000 kPa, x2 = 0 | 883.2 | 875.3 | 867.7 | 860.4 | 852.8 | 845.5 | 838 | 830.2
30000 kPa, x2 = 0.2005 | 844.5 | 837 | 829.7 | 822.7 | 815.4 | 808.4 | 801.2 | 793.8
30000 kPa, x2 = 0.3999 | 813.3 | 805.9 | 798.8 | 792.1 | 785 | 778.2 | 771.2 | 764.1
30000 kPa, x2 = 0.603 | 788.1 | 780.9 | 773.9 | 767.4 | 760.5 | 753.9 | 747.1 | 740.2
30000 kPa, x2 = 0.7998 | 768.2 | 761.2 | 754.3 | 747.9 | 741.3 | 734.7 | 728.1 | 721.4
35000 kPa, x2 = 0 | 886 | 878.2 | 870.9 | 863.7 | 856.2 | 849.2 | 841.7 | 834.2
35000 kPa, x2 = 0.2005 | 847.3 | 840.1 | 833 | 826 | 818.9 | 812.1 | 805 | 797.8
35000 kPa, x2 = 0.3999 | 816.1 | 809 | 802.1 | 795.3 | 788.4 | 781.9 | 775 | 768.1
35000 kPa, x2 = 0.603 | 790.9 | 784.1 | 777.2 | 770.6 | 763.9 | 757.6 | 750.9 | 744.3
35000 kPa, x2 = 0.7998 | 771 | 764.3 | 757.6 | 751.2 | 744.7 | 738.4 | 731.9 | 725.4
40000 kPa, x2 = 0 | 888.7 | 881 | 873.8 | 866.9 | 859.7 | 852.5 | 845.3 | 838.1
40000 kPa, x2 = 0.2005 | 850.1 | 842.9 | 835.9 | 829.2 | 822.4 | 815.5 | 808.6 | 801.7
40000 kPa, x2 = 0.3999 | 818.8 | 811.8 | 805 | 798.6 | 792 | 785.3 | 778.6 | 772
40000 kPa, x2 = 0.603 | 793.7 | 786.9 | 780.1 | 773.9 | 767.4 | 761 | 754.5 | 748.2
40000 kPa, x2 = 0.7998 | 773.8 | 767.1 | 760.5 | 754.4 | 748.2 | 741.8 | 735.4 | 729.3
50000 kPa, x2 = 0 | 894.4 | 886.7 | 879.8 | 873 | 866 | 859.1 | 852.1 | 845.2
50000 kPa, x2 = 0.2005 | 855.8 | 848.6 | 841.9 | 835.3 | 828.7 | 822.1 | 815.4 | 808.8
50000 kPa, x2 = 0.3999 | 824.5 | 817.5 | 810.9 | 804.7 | 798.2 | 791.9 | 785.4 | 779.1
50000 kPa, x2 = 0.603 | 799.4 | 792.6 | 786.1 | 779.9 | 773.7 | 767.6 | 761.3 | 755.2
50000 kPa, x2 = 0.7998 | 779.4 | 772.8 | 766.4 | 760.4 | 754.4 | 748.5 | 742.2 | 736.3
60000 kPa, x2 = 0 | 899.1 | 892 | 885.1 | 878.8 | 871.9 | 865 | 858.5 | 852
60000 kPa, x2 = 0.2005 | 860.6 | 853.9 | 847.2 | 841.2 | 834.6 | 828.1 | 821.8 | 815.6
60000 kPa, x2 = 0.3999 | 829.2 | 822.7 | 816.2 | 810.5 | 804.2 | 797.8 | 791.8 | 785.8
60000 kPa, x2 = 0.603 | 804 | 797.8 | 791.3 | 785.8 | 779.6 | 773.4 | 767.6 | 761.8
60000 kPa, x2 = 0.7998 | 784.1 | 778 | 771.6 | 766.3 | 760.4 | 754.2 | 748.5 | 742.9
